These results are taken from PubChem BioAssay (NCI).

Among the test systems are HOP-62 NSCLC; K-562 leukemia; COLO 205 colon; NCI/ADR-RES ovarian; NCI-H522 lung; SF-295 CNS; SNB-75 CNS; SF-268 CNS.
Test in all cases: inhibition of tumour cell growth, NCI panel, 48 h

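Where inhibition never reached the appropriate level, the endpoint shown equals the highest concentration tested. Otherwise, values were interpolated linearly from a five-concentration, 48-hour dose response in 96-well plates. GI50 marks 50% less growth. TGI is the concentration that stops growth completely.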

Turning to `COc1cc(F)c(/C=C/c2cc(/C=C/c3cc(OC)c(OC)cc3F)n(-c3cc(F)cc(F)c3)n2)cc1OC`, the GI50 was 4.01 µM in the assay with HOP-62 NSCLC; 3.08 µM in the assay on K-562 leukemia; 3.95 µM in the assay on COLO 205 colon; 2.23 µM in the assay with NCI/ADR-RES ovarian; 1.91 µM in the assay on NCI-H522 lung; 2.97 µM in the assay on SF-295 CNS. Moreover, the GI50 in the assay on SNB-75 CNS is 2.42 µM; with SF-268 CNS, 3.15 µM. Besides, the TGI with HOP-62 NSCLC was 17.1 µM; in the assay on K-562 leukemia, greater than 100 µM; in the assay on COLO 205 colon it was 26.8 µM; in the assay on NCI/ADR-RES ovarian, 5.65 µM; in the assay on NCI-H522 lung it was 5.47 µM; with SF-295 CNS it was 11.4 µM. Further, the TGI in the assay with SNB-75 CNS was found to be 14.4 µM; in the assay on SF-268 CNS it was 13.6 µM.

For `CCc1ccc2nccc(NCCCN(C)C)c2c1[N+](=O)[O-]`, the TGI is greater than 100 µM with HOP-62 NSCLC; greater than 100 µM in the assay with K-562 leukemia; 94.1 µM with COLO 205 colon; greater than 100 µM in the assay on NCI/ADR-RES ovarian; greater than 100 µM in the assay on NCI-H522 lung; greater than 100 µM with SF-295 CNS. Moreover, the TGI in the assay with SNB-75 CNS and with SF-268 CNS was greater than 100 µM in each case.

In the case of `Nc1ccc(C(OC(=O)c2cc3ccccc3c(Cc3c(O)c(C(=O)OC(c4ccc(N)cc4)(c4ccc(N)cc4)c4ccc(N)cc4)cc4ccccc34)c2O)(c2ccc(N)cc2)c2ccc(N)cc2)cc1`, the GI50 with HOP-62 NSCLC is 0.331 µM; with K-562 leukemia, 0.682 µM; with COLO 205 colon, 1.21 µM; in the assay on NCI/ADR-RES ovarian it was 15.5 µM; with NCI-H522 lung it was 0.588 µM; in the assay on SF-295 CNS it was 0.475 µM. Further, the GI50 in the assay on SNB-75 CNS was 0.497 µM; with SF-268 CNS, 0.471 µM. Moreover, the TGI with HOP-62 NSCLC was 14.1 µM; in the assay with K-562 leukemia it was greater than 100 µM; in the assay with COLO 205 colon, 3.15 µM; in the assay with NCI/ADR-RES ovarian it was greater than 100 µM; in the assay on NCI-H522 lung, 12.4 µM; in the assay on SF-295 CNS, greater than 100 µM. In addition, the TGI amounted to 11.7 µM in the assay with SNB-75 CNS and 18.7 µM in the assay with SF-268 CNS.

Consider `OCC(CCc1c[nH]c2ccccc12)c1c[nH]c2ccccc12` (stereo not given), for which the TGI in the assay with HOP-62 NSCLC is 50.6 µM; in the assay on K-562 leukemia it was 67.6 µM; in the assay on COLO 205 colon it was 30.6 µM; with NCI/ADR-RES ovarian, 44.1 µM; in the assay on NCI-H522 lung it was 29.4 µM; with SF-295 CNS, 42.9 µM. Further, the TGI with SNB-75 CNS is 45.7 µM; with SF-268 CNS, 32.4 µM.

`C=C1C(OC/C=C/COC2O[C@@H]3O[C@@]4(C)CC[C@H]5[C@H](C)CC[C@@H](C2=C)[C@@]35OO4)O[C@@H]2O[C@@]3(C)CC[C@H]4[C@H](C)CC[C@@H]1[C@@]24OO3` (stereo not given in full): the GI50 with HOP-62 NSCLC is 15.8 µM; in the assay on K-562 leukemia, 0.0949 µM; in the assay with COLO 205 colon, 0.226 µM; in the assay on NCI/ADR-RES ovarian it was 0.203 µM; in the assay on NCI-H522 lung, 5.17 µM; in the assay on SNB-75 CNS, 7.99 µM. Also, the GI50 in the assay on SF-268 CNS was 5.87 µM. The TGI with HOP-62 NSCLC is 41.5 µM; in the assay with K-562 leukemia, greater than 67.3 µM; with COLO 205 colon, 13.6 µM; with NCI/ADR-RES ovarian, 18.1 µM; with NCI-H522 lung, 69.6 µM; in the assay with SF-295 CNS it was 2.19 µM. The figures for the TGI in the assay on SNB-75 CNS and with SF-268 CNS were 31.1 µM and 30.9 µM, respectively.

For `CN(C)CCCCn1ccc2c1C(=O)c1c(c(O)c3ccccc3c1O)C2=O`, the GI50 in the assay on HOP-62 NSCLC is 15.8 µM; with K-562 leukemia it was 1.78 µM; with COLO 205 colon, 7.05 µM; in the assay on NCI/ADR-RES ovarian, 13.3 µM; in the assay with NCI-H522 lung, 33.8 µM; in the assay with SF-295 CNS, 4.63 µM. In addition, the figures for the GI50 in the assay on SNB-75 CNS and in the assay with SF-268 CNS were 15.8 µM and 11 µM, respectively. Moreover, the TGI was 31 µM with HOP-62 NSCLC; 4.07 µM in the assay with K-562 leukemia; 21 µM in the assay on COLO 205 colon; 27.5 µM in the assay on NCI/ADR-RES ovarian; greater than 100 µM in the assay with NCI-H522 lung; 15.5 µM in the assay with SF-295 CNS. For the same compound, the TGI came out at 35.8 µM in the assay with SNB-75 CNS and 30.6 µM in the assay with SF-268 CNS.

Consider `CCN(CC)CCn1c2ccc(OC)cc2c2sc3cc(OC)ccc3c(=O)c21`, for which the GI50 in the assay on HOP-62 NSCLC was 2.32 µM; in the assay on K-562 leukemia it was 0.728 µM; with COLO 205 colon, 1.39 µM; with NCI/ADR-RES ovarian, 1.24 µM; with NCI-H522 lung, 1.71 µM; in the assay on SF-295 CNS, 1.82 µM. For the same compound, the values for the GI50 in the assay with SNB-75 CNS and with SF-268 CNS were 1.11 µM and 1.87 µM, respectively. Besides, the TGI amounted to 8.62 µM in the assay on HOP-62 NSCLC; 2.76 µM with K-562 leukemia; 3.32 µM in the assay on COLO 205 colon; 3.6 µM in the assay on NCI/ADR-RES ovarian; 4.22 µM in the assay on NCI-H522 lung; 3.45 µM in the assay on SF-295 CNS. In addition, the TGI turned out to be 6.48 µM in the assay with SNB-75 CNS and 5.35 µM with SF-268 CNS.

Turning to `Nc1nccc2c1ncn2C1OC(CO)C(O)C1O` (stereo not given), the GI50 with HOP-62 NSCLC, with K-562 leukemia, in the assay on COLO 205 colon, in the assay on NCI/ADR-RES ovarian, in the assay on NCI-H522 lung and in the assay with SF-295 CNS was greater than 100 µM throughout. For the same compound, the GI50 in the assay with SNB-75 CNS was greater than 100 µM; in the assay with SF-268 CNS it was 83.4 µM. Besides, the TGI in the assay with HOP-62 NSCLC, in the assay with K-562 leukemia, in the assay with COLO 205 colon, in the assay with NCI/ADR-RES ovarian, with NCI-H522 lung and in the assay on SF-295 CNS was greater than 100 µM each time. For the same compound, the TGI in the assay on SNB-75 CNS and with SF-268 CNS was greater than 100 µM each time.

In the case of `O=c1oc2c3ccc4cnccc4c3[nH]c2c2ccccc12`, the GI50 with HOP-62 NSCLC is 3 µM; in the assay on K-562 leukemia, 27.7 µM; in the assay with COLO 205 colon it was 4.24 µM; in the assay with NCI/ADR-RES ovarian, 66.4 µM; in the assay with NCI-H522 lung it was 11.8 µM; in the assay with SF-295 CNS it was 41.7 µM. Further, the GI50 is 20.6 µM with SNB-75 CNS and 13.1 µM with SF-268 CNS. Further, the TGI in the assay on HOP-62 NSCLC is 8.3 µM; in the assay on K-562 leukemia, greater than 100 µM; in the assay on COLO 205 colon, 17.4 µM; in the assay with NCI/ADR-RES ovarian, greater than 100 µM; in the assay on NCI-H522 lung, 77.1 µM; in the assay with SF-295 CNS it was greater than 100 µM. Further, the figures for the TGI in the assay on SNB-75 CNS and in the assay with SF-268 CNS were 65.6 µM and greater than 100 µM, respectively.

`Clc1cc(-c2ccccc2)nc2ccccc12`: the TGI in the assay on HOP-62 NSCLC was greater than 100 µM; in the assay with K-562 leukemia, greater than 100 µM; in the assay on COLO 205 colon it was 37.5 µM; in the assay on NCI/ADR-RES ovarian, greater than 100 µM; in the assay on NCI-H522 lung it was 34 µM; in the assay with SF-295 CNS, greater than 100 µM. Moreover, the values for the TGI in the assay on SNB-75 CNS and in the assay on SF-268 CNS were 83.5 µM and greater than 100 µM, respectively.
